{"source": "patent EP0120757A1", "about": "“Compositions in the form of microglobules consisting of partially quaternised, tertiary polyamines, and containing hydrophobic compounds, their preparation and application” (Etablissement Public dit: CENTRE NATIONAL DE LA RECHERCHE …, priority 1983, dated 1984)", "key": {"[1]": {"experiment": "Solubilisation of griseofulvine in aqueous Q-P(TDAE)19 microglobule solution, assayed by circular dichroism at 294 nm after filtration", "format": "physicochemical", "settings": "Example 5, Q-P(TDAE)19 TN = 2,5 x 10^-2 N, per ml of filtrate", "method": "Les essais sont effectués à partir d'une solution basique de Q-P(TDAE)19 (TN= 2,5 x 10^-2 N). Des échantillons contenant 5ml de cette solution basique sont ajustés aux pH correspondant aux différents β par addition de HC1 0,5N).\n7mg de griseofulvine en poudre sont ajoutés à chaque échantillon. On laisse soniquer pendant 5 minutes et on filtre les mélanges sur filtre millipore (0,45 micromètre). Les filtrats limpides sont conservés de la même façon que pour les exemples 1 et 2. Le dosage de la griseofulvine solubilisée est effectué dans le milieu solvant eau-acétonitrile : 20/80, V/V. On prélève dans chaque essai, 1ml de filtrat qui est dilué à 5ml par de l'acétonitrile. Les ellipticités des différentes solutions sont mesurées à λ = 294nm et comparées à des solutions standard de griseofulvine dissoutes dans le même milieu solvant.\nLe tableau suivant donne les quantités de griseofulvine dissoute (en microgrammes par ml de filtrat) en fonction du pH et du degré de protonation β . La solubilité de la griseofulvine dans l'eau est de l'ordre de 13 à 15 microgrammes par ml."}, "[2]": {"experiment": "Solubility of the hydrophobic drug in water without polymer"}, "[3]": {"experiment": "Solubilisation of progestérone in aqueous Q-P(TDAE)19 microglobule solution, assayed by circular dichroism at 285 nm after filtration", "format": "physicochemical", "settings": "for progestérone (microgrammes/ml): per ml of filtrate; for quantité de progestérone dissoute: Example 3, Q-P(TDAE)19 TN = 0,125 N, pH = 7,7, β = 0,06", "method": "A) Les essais sont effectués à partir d'une solution basique de poly(diéthylaminométhyl thiiranne) quaternisée à 19% Q-P(TDAE)19 de formule [drawing 4] X étant un anion (par exemple un anion halogénure tel que chlorure ou bromure), à une concentration TN = (2,5+ 0,1)x 10^-2 N (polymère = 3,77mg de polymère sous forme basique par ml de solution).\nCette solution est obtenue de la façon suivante: • 270mg de chlorhydrate de Q-P(TDAE)19 sont dissous dans 10ml d'eau distillée, puis passés sur une résine échangeuse d'anions (BIO-RAD AG 1-x4-20-50 mesh-) sous forme OH et récupérés dans une fiole jaugée de 50ml.\nDes échantillons contenant 5m1 de cette solution basique sont ajustés, par addition de HC1 0,5N, aux pH correspondant à différentes valeurs du degré de protonation apparent de la fonction amine tertiaire résiduelle dans le domaine 0 < β< 1. On ajoute 5mg de progestérone en poudre à chaque échantillon et les mélanges sont soit soniqués pendant 5 minutes soit agités pendant 48 heures.\nAprès dissolution, chaque échantillon est filtré sur filtre millipore (0,45 micromètres). Les filtrats sont clairs et limpides. Le système \"véhicule-drogue\" peut être conservé de deux façons différentes: • - en solution, pendant quelques mois au réfrigérateur • - sous forme solide, en lyophilisant les filtrats et en les conservant sous vide. Le filtrat lyophilisé se solubilise rapidement en solution aqueuse.\nLe dosage de la progestérone solubilisée ne peut être fait que par extraction de cette dernière des microémulsions. Cette extraction est obtenue par éclatement des véhicules globulaires dans un mélange filtrat-éthanol absolu dans le rapport V/V : 20/80. 1ml de chaque filtrat est dilué à 5ml par addition d'éthanol. Les différents filtrats présentent dans la région 350-250nm des bandes dichrolques caractéristiques de la progestérone. Le signal de dichroisme circulaire à λ = 285nm est utilisable pour évaluer la quantité de progestérone présente dans chaque filtrat par comparaison avec les ellipticités de solutions standard de progestérone dissoute dans le même milieu solvant.\nLe tableau suivant donne les quantités de progestérone solubilisée (en microgramme par ml de filtrat) en fonction du pH et du degré de protonation β pour chaque essai.\nOn opère comme à l'exemple 1 mais les essais sont effectués à partir d'une concentration TN = 0,15N de Q-P(TDAE)19 sous forme basique. Des échantillons contenant 2ml de cette solution sont ajustés à différents β par addition de HC1 N et additionnés de 5mg de progestérone. Après sonication pendant 5 minutes, les mélanges sont filtrés sur filtre millipore (0,45 micromètre). Le dosage de la progestérone solubilisée est fait comme précédemment. 0,2ml de chaque filtrat sont dilués à 2ml par de l'éthanol absolu. Les ellipticités sont mesurées â λ = 285nm et comparées aux solutions standard de progestérone effectuées dans les mêmes conditions.\nLe tableau suivant donne les quantités de progestérone solubilisée (en microgrammes par ml de filtrat) en fonction du pH et du degré de protonation S.\nDeux essais sont réalisés dans les mêmes conditions: concentration en polymère, β et pH identiques mais on ajoute au deuxième essai, du chlorure de sodium de telle façon que la solution soit à 0,9X en NaCl.\nDeux échantillons contenant 2m1 de solution basique de Q-P(TDAE)19 (TN = 0,125 N) sont ajustés à pH = 7,7 et à β= 0,06 par addition de 0,06ml de HCl N. Dans le deuxième échantillon, on ajoute 18mg de NaCl. 5mg de progestérone sont additionnés à chaque échantillon. Les mélanges sont soniqués pendant 5 minutes. Le protocole de filtration et de dosage de la progestérone solubilisée est le même qu'à l'exemple 2."}}}
{"compound": "COC1=CC(=O)C[C@@H](C)[C@]12Oc1c(Cl)c(OC)cc(OC)c1C2=O", "note": "[griseofulvine]", "values": [{"measurement": "griseofulvine (microgrammes/ml)", "setting": "[1]; essai 1, pH 7,6, β 0,02", "value": 47, "unit": "microgrammes/ml"}, {"measurement": "griseofulvine (microgrammes/ml)", "setting": "[1]; essai 2, pH 7,08, β 0,093", "value": 43, "unit": "microgrammes/ml"}, {"measurement": "griseofulvine (microgrammes/ml)", "setting": "[1]; essai 3, pH 7,0, β 0,185", "value": 36, "unit": "microgrammes/ml"}, {"measurement": "griseofulvine (microgrammes/ml)", "setting": "[1]; essai 4, pH 6,95, β 0,26", "value": 30, "unit": "microgrammes/ml"}, {"measurement": "griseofulvine (microgrammes/ml)", "setting": "[1]; essai 5, pH 6,95, β 0,32", "value": 26, "unit": "microgrammes/ml"}, {"measurement": "griseofulvine (microgrammes/ml)", "setting": "[1]; essai 6, pH 6,95, β 0,42", "value": 22, "unit": "microgrammes/ml"}, {"measurement": "griseofulvine (microgrammes/ml)", "setting": "[1]; essai 7, pH 6,83, β 0,51", "value": 18, "unit": "microgrammes/ml"}, {"measurement": "griseofulvine (microgrammes/ml)", "setting": "[1]; essai 8, pH 6,67, β 0,673", "value": 15, "unit": "microgrammes/ml"}, {"measurement": "griseofulvine (microgrammes/ml)", "setting": "[1]; essai 9, pH 6,20, β 0,89", "value": 15, "unit": "microgrammes/ml"}, {"measurement": "griseofulvine (microgrammes/ml)", "setting": "[1]; essai 10, pH 4,5 à 4,6, β 1", "value": 15, "unit": "microgrammes/ml"}, {"measurement": "solubility", "setting": "[2]", "value": "13 to 15", "unit": "µg/mL"}]}
{"compound": "progestérone", "values": [{"measurement": "progestérone (microgrammes/ml)", "setting": "[3]; Example 1, Q-P(TDAE)19 TN = 2,5 x 10^-2 N, essai 1, pH 7,5, β 0,07", "value": 75, "unit": "microgrammes/ml"}, {"measurement": "progestérone (microgrammes/ml)", "setting": "[3]; Example 1, Q-P(TDAE)19 TN = 2,5 x 10^-2 N, essai 2, pH 6,97, β 0,135", "value": "62-64 microgrammes/ml"}, {"measurement": "progestérone (microgrammes/ml)", "setting": "[3]; Example 1, Q-P(TDAE)19 TN = 2,5 x 10^-2 N, essai 3, pH 6,95, β 0,20", "value": "48-50 microgrammes/ml"}, {"measurement": "progestérone (microgrammes/ml)", "setting": "[3]; Example 1, Q-P(TDAE)19 TN = 2,5 x 10^-2 N, essai 4, pH 6,95, β 0,26", "value": 38, "unit": "microgrammes/ml"}, {"measurement": "progestérone (microgrammes/ml)", "setting": "[3]; Example 1, Q-P(TDAE)19 TN = 2,5 x 10^-2 N, essai 5, pH 6,95, β 0,38", "value": 26, "unit": "microgrammes/ml"}, {"measurement": "progestérone (microgrammes/ml)", "setting": "[3]; Example 1, Q-P(TDAE)19 TN = 2,5 x 10^-2 N, essai 6, pH 6,80, β 0,63", "value": "14-16 microgrammes/ml"}, {"measurement": "progestérone (microgrammes/ml)", "setting": "[3]; Example 1, Q-P(TDAE)19 TN = 2,5 x 10^-2 N, essai 7, pH 6,55, β 0,75", "value": "11-12 microgrammes/ml"}, {"measurement": "progestérone (microgrammes/ml)", "setting": "[3]; Example 1, Q-P(TDAE)19 TN = 2,5 x 10^-2 N, essai 8, pH 6,15, β 0,88", "value": "11-12 microgrammes/ml"}, {"measurement": "progestérone (microgrammes/ml)", "setting": "[3]; Example 2, Q-P(TDAE)19 TN = 0,15N, essai 1, pH 7,50, β 0,13", "value": 315, "unit": "microgrammes/ml"}, {"measurement": "progestérone (microgrammes/ml)", "setting": "[3]; Example 2, Q-P(TDAE)19 TN = 0,15N, essai 2, pH 7,50, β 0,17", "value": 300, "unit": "microgrammes/ml"}, {"measurement": "progestérone (microgrammes/ml)", "setting": "[3]; Example 2, Q-P(TDAE)19 TN = 0,15N, essai 3, pH 7,50, β 0,26", "value": 225, "unit": "microgrammes/ml"}, {"measurement": "progestérone (microgrammes/ml)", "setting": "[3]; Example 2, Q-P(TDAE)19 TN = 0,15N, essai 4, pH 7,40, β 0,47", "value": "185-190 microgrammes/ml"}, {"measurement": "progestérone (microgrammes/ml)", "setting": "[3]; Example 2, Q-P(TDAE)19 TN = 0,15N, essai 5, pH 7,36, β 0,51", "value": 80, "unit": "microgrammes/ml"}, {"measurement": "progestérone (microgrammes/ml)", "setting": "[3]; Example 2, Q-P(TDAE)19 TN = 0,15N, essai 6, pH 7,25, β 0,58", "value": 70, "unit": "microgrammes/ml"}, {"measurement": "progestérone (microgrammes/ml)", "setting": "[3]; Example 2, Q-P(TDAE)19 TN = 0,15N, essai 7, pH 4,8, β 0,98", "value": "10 à 12 microgrammes/ml"}, {"measurement": "quantité de progestérone dissoute", "setting": "[3]; with NaCl, solution at 0,9X en NaCl (18mg in 2ml)", "value": "375 microgrammes par ml de filtrat"}, {"measurement": "quantité de progestérone dissoute", "setting": "[3]; without NaCl", "value": "375 microgrammes par ml de filtrat"}, {"measurement": "solubilité dans l'eau", "setting": "[2]; no polymer, approximate values, no source stated", "value": "11 à 12 microgrammes par ml"}]}
